Data as given in US20260365671A1, “HETEROCYCLIC COMPOUND” (Takeda Pharmaceutical Company Limited, priority 2022, published 2026).

What was measured:
NLRP3 inflammasome = molecular target: T1, NLRP3 inflammasome (Homo sapiens, UniProt Q96P20); experiment: IL-1β TR-FRET assay (THP-1 cells differentiated to macrophages with IFN-γ, LPS primed, ATP activated; HTRF); assay type: cell-based; settings: THP-1 macrophages, 50 ng/mL LPS priming, compound 30 min, 20 mM ATP 2 hours
T1 construct: IL-1beta HTRF
Protocol: (§1) The biological activity of Compound (I) with respect to NLRP3 was determined using the following in vitro methods.
IL-1β TR-FRET Assay (Reported as IC50)
Monocytic THP-1 cells (ATCC: TIB-202) were maintained in accordance with the provider's instructions in RPMI media (Life Technologies, Cat #A10491-01); RPMI was supplemented with 10% heat inactivated fetal bovine serum (Corning, Cat #35-010-CV). The cells were differentiated into macrophages by the addition of 25 ng/mL IFN-γ (PeproTech, Cat #AF300-02-100UG) for 24 hours at 37 °C/5% CO2. Media was exchanged with fresh media with no FBS, and the cells were treated with 50 ng/mL LPS (priming step) (LPS-EK: Invivogen, Cat #tlrl-peklps). The cells were plated at 240,000 cells per well in 384-well flat-bottom cell culture plates (FALCON, Cat #353962) and were incubated for 24 hours at 37 °C/5% CO2. Compounds were serially diluted (half log dilutions) with DMSO and were finally diluted with Media with no FBS. The compounds were added to the cells in 384-well plates (added in 1:3) and then the plates were incubated for 30 minutes at 37 °C/5% CO2. The NLRP3 inflammasome was activated with the addition of 20 mM ATP (Sigma Cat #A3377-25G) and the cells were incubated for 2 hours at 37 °C/5% CO2. At the end of the incubation period, 30 μL supernatant was transferred to another 384-well plate and mixed on a plate shaker for 1 minutes. The supernatant was mixed with HTRF Antibody (Human IL1 beta kit, Cisbio, 62HIL1BPEH) in assay plates (Greiner Bio-One, Cat #784075) and the assay plates were incubated in shading box at room temperature for 16-24 hours. HTRF signal was measured by EnVision (Perkinelmer) in accordance with the manufacturer's instructions.
(§2) The IC50 values were calculated from a plot of percentage of inhibition versus the inhibitor concentration by a logistics curve fit according to: Y=[Bottom+(Top−Bottom)]/(1+10^[(Log IC50−X)·Hill Slope], where Y is the % inhibition at the inhibitor concentration, X, “Bottom” is the lowest inhibition value, i.e., 0%, “Top” is the maximum inhibition value, i.e., 100%, and the “Hill Slope” describes the slope of the sigmoidal curve between the “Bottom” and “Top” values. The curve fitting was conducted with XLfit (ver. 5.5.0.5, ID Business Solutions Limited) or internally developed software.
(§3) Table 2 lists in vitro biological assay data (IL-1β and TNF-α) for the compounds shown in the examples. These assays are described in the section entitled Biological Activity, above.

NF-κB pathway = experiment: TNF-α assay (THP-1 cells differentiated to macrophages with IFN-γ, NF-κB pathway activated with LPS; ELISA); assay type: cell-based, Human; settings: Homo sapiens, THP-1, THP-1 macrophages, compound 30 min, 50 ng/mL LPS 3 hours
Protocol: as §1
TNF-α Assay (Reported as IC50)
Monocytic THP-1 cells (ATCC: TIB-202) were maintained in accordance with the provider's instructions in RPMI media (Life Technologies, Cat #A10491-01); RPMI was supplemented with 10% heat inactivated fetal bovine serum (Hyclone Cat #SH30396.03). The cells were differentiated into macrophages by the addition of 25 ng/mL IFN-γ for 24 hours at 37 °C/5% CO2. Media was exchanged with fresh media with no FBS. The cells were plated at 40,000 cells per well in 384-well flat-bottom cell culture plates (Costar 3764) containing compounds (added in 1:1000) in a 1:3.16 serial dilution series in DMSO and were incubated for 30 minutes at 37 °C/5% CO2. The NF-κB pathway was activated with the addition of 50 ng/mL LPS and the cells were incubated for 3 hours at 37 °C/5% CO2. At the end of the incubation period, supernatant ([…]) was removed, and […] were monitored using an ELISA (Human TNF-α ELISA, R&D systems, Cat #DY210) according to the manufacturer's instructions.
as §2, §3

T1 sequence (Q96P20 whole entry): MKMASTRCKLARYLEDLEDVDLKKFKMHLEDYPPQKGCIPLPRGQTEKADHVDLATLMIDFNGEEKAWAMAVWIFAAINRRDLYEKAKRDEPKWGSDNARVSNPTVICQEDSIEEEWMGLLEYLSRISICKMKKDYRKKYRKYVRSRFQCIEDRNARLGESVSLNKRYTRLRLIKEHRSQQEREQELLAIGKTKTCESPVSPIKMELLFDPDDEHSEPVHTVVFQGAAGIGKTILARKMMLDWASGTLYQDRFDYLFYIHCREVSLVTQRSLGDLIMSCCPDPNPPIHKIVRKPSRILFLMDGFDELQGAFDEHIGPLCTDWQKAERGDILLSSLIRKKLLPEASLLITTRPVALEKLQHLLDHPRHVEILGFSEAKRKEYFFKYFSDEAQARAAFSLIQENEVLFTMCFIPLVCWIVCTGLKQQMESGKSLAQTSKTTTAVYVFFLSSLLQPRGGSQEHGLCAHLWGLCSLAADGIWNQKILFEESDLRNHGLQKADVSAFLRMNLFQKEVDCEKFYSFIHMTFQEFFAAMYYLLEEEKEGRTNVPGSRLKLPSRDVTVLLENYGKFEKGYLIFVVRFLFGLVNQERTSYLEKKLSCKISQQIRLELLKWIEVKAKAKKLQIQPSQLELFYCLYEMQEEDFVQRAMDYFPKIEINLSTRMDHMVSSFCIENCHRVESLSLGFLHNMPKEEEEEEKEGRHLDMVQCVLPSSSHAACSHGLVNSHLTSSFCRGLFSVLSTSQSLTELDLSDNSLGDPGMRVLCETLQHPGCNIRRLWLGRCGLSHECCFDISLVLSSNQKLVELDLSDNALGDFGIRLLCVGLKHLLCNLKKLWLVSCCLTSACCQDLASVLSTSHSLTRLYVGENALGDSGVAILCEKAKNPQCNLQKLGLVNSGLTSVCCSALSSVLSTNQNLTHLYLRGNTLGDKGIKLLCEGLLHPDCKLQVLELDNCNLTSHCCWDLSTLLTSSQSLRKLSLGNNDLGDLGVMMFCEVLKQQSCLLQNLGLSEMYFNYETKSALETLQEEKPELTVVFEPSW

Work on `CN1C[C@H](F)C[C@@H](Nc2nc3nn(-c4c(O)cccc4Cl)cc3s2)C1` [Example 8, 3-chloro-2-(5-{[(3R,5R)-5-fluoro-1-methylpiperidin-3-yl]amino}-2H-pyrazolo[3,4-d][1,3]thiazol-2-yl)phenol] yielded an IC50 (NLRP3 inflammasome) of 290 nM and an IC50 (NF-κB pathway) of over 30000 nM.
Work on `Cc1cc(Cl)cc(O)c1-n1cc2sc(N[C@@H]3C[C@@H](F)CN(C)C3)nc2n1` [Example 9, 5-chloro-2-(5-{[(3R,5R)-5-fluoro-1-methylpiperidin-3-yl]amino}-2H-pyrazolo[3,4-d][1,3]thiazol-2-yl)-3-methylphenol] yielded an IC50 (NLRP3 inflammasome) of 14 nM and an IC50 (NF-κB pathway) of over 30000 nM.
Work on `Cc1cc(O)c(-n2cc3sc(N[C@@H]4C[C@@H](F)CN(C)C4)nc3n2)c(Cl)c1` [Example 11, 3-chloro-2-(5-{[(3R,5R)-5-fluoro-1-methylpiperidin-3-yl]amino}-2H-pyrazolo[3,4-d][1,3]thiazol-2-yl)-5-methylphenol] yielded an IC50 (NLRP3 inflammasome) of 37 nM and an IC50 (NF-κB pathway) of over 30000 nM.
`Cc1cc(F)cc(O)c1-n1cc2sc(N[C@@H]3CCCN(C4CC4)C3)nc2n1` [Example 12, 2-(5-{[(3R)-1-cyclopropylpiperidin-3-yl]amino}-2H-pyrazolo[3,4-d][1,3]thiazol-2-yl)-5-fluoro-3-methylphenol] gave an IC50 (NLRP3 inflammasome) of 3.6 nM and an IC50 (NF-κB pathway) of over 10000 nM.
`Cc1cc(C(F)F)cc(O)c1-n1cc2sc(N[C@@H]3C[C@@H](F)CN(C)C3)nc2n1` [Example 13, 5-(difluoromethyl)-2-(5-{[(3R,5R)-5-fluoro-1-methylpiperidin-3-yl]amino}-2H-pyrazolo[3,4-d][1,3]thiazol-2-yl)-3-methylphenol] showed an IC50 (NLRP3 inflammasome) of 25 nM and an IC50 (NF-κB pathway) of over 30000 nM.
`CCN1C[C@H](F)C[C@@H](Nc2nc3nn(-c4c(C)cc(C(F)F)cc4O)cc3s2)C1` [Example 16, 5-(difluoromethyl)-2-(5-{[(3R,5R)-1-ethyl-5-fluoropiperidin-3-yl]amino}-2H-pyrazolo[3,4-d][1,3]thiazol-2-yl)-3-methylphenol] gave an IC50 (NLRP3 inflammasome) of 11 nM and an IC50 (NF-κB pathway) of over 30000 nM.
Compound `CN1C[C@H](F)C[C@@H](Nc2nc3nn(-c4c(O)cc(F)cc4Cl)cc3s2)C1` [Example 17, 3-chloro-5-fluoro-2-(5-{[(3R,5R)-5-fluoro-1-methylpiperidin-3-yl]amino}-2H-pyrazolo[3,4-d][1,3]thi-azol-2-yl)phenol] has an IC50 (NLRP3 inflammasome) of 110 nM and an IC50 (NF-κB pathway) of over 30000 nM.
`Oc1cc(F)cc(Cl)c1-n1cc2sc(N[C@@H]3CCCN(C4CC4)C3)nc2n1` [Example 18, 3-chloro-2-(5-{[(3R)-1-cyclopropyl-piperidin-3-yl]amino}-2H-pyrazolo[3,4-d][1,3]thiazol-2-yl)-5-fluorophenol] gave an IC50 (NLRP3 inflammasome) of 11 nM and an IC50 (NF-κB pathway) of over 30000 nM.
Compound `CO[C@H]1C[C@@H](Nc2nc3nn(-c4c(C)cc(C)cc4O)cc3s2)CN(C)C1` [Example 19, 2-(5-{[(3R,5S)-5-methoxy-1-methylpiperidin-3-yl]amino}-2H-pyrazolo[3,4-d][1,3]thiazol-2-yl)-3,5-dimethylphenol] has an IC50 (NLRP3 inflammasome) of 5400 nM and an IC50 (NF-κB pathway) of over 30000 nM.
`CCc1cc(C)cc(O)c1-n1cc2sc(N[C@@H]3C[C@@H](F)CN(C)C3)nc2n1` [Example 20, 3-ethyl-2-(5-{[(3R,5R)-5-fluoro-1-methylpiperidin-3-yl]amino}-2H-pyrazolo[3,4-d][1,3]thiazol-2-yl)-5-methylphenol] gave an IC50 (NLRP3 inflammasome) of 9.2 nM and an IC50 (NF-κB pathway) of over 30000 nM.
`CCN1C[C@H](F)C[C@@H](Nc2nc3nn(-c4c(O)cc(F)cc4C(F)F)cc3s2)C1` [Example 24, 3-(difluoromethyl)-2-(5-{[(3R,5R)-1-ethyl-5-fluoropiperidin-3-yl]amino}-2H-pyrazolo[3,4-d][1,3]thiazol-2-yl)-5-fluorophenol] gave an IC50 (NLRP3 inflammasome) of 16 nM and an IC50 (NF-κB pathway) of over 10000 nM.
Compound `Cc1cc(C)c(-n2cc3sc(N[C@H]4CC[C@H](O)CC4)nc3n2)c(O)c1` [Example 25, 2-{5-[(trans-4-hydroxycyclo-hexyl)amino]-2H-pyrazolo[3,4-d][1,3]thiazol-2-yl}-3,5-dimethylphenol] has an IC50 (NLRP3 inflammasome) of 350 nM and an IC50 (NF-κB pathway) of over 10000 nM.
Work on `Cc1cc(C)c(-n2cc3sc(N[C@H]4CC[C@@H](O)CC4)nc3n2)c(O)c1` [Example 26, 2-{5-[(cis-4-hydroxycyclohexyl)amino]-2H-pyrazolo[3,4-d][1,3]thiazol-2-yl}-3,5-dimethylphenol] yielded an IC50 (NLRP3 inflammasome) of 830 nM and an IC50 (NF-κB pathway) of over 10000 nM.
`Cc1cc(C)c(-n2cc3sc(N[C@@H]4CCCN(C(=O)OCC(Cl)(Cl)Cl)C4)nc3n2)c(O)c1` [Example 27, 2,2,2-trichloroethyl (3R)-3-{[2-(2-hydroxy-4,6-dimethylphenyl)-2H-pyrazolo[3,4-d][1,3]thiazol-5-yl]amino}piperidine-1-carboxylate] gave an IC50 (NLRP3 inflammasome) of 620 nM and an IC50 (NF-κB pathway) of 6300 nM.
`Cc1cc(C)c(-n2cc3sc(NC4CCCC4O)nc3n2)c(O)c1` (stereo not shown) [Example 28, 2-{5-[(2-hydroxycyclopentyl)amino]-2H-pyrazolo[3,4-d][1,3]thiazol-2-yl}-3,5-dimethylphenol] gave an IC50 (NLRP3 inflammasome) of 480 nM and an IC50 (NF-κB pathway) of over 10000 nM.
With `Cc1cc(C)c(-n2cc3sc(NC4CCCC(O)C4)nc3n2)c(O)c1` (stereo not shown) [Example 29, 2-{5-[(3-hydroxycyclohexyl)amino]-2H-pyrazolo[3,4-d][1,3]thiazol-2-yl}-3,5-dimethylphenol] the IC50 (NLRP3 inflammasome) was 540 nM and the IC50 (NF-κB pathway) was over 10000 nM.
Work on `Cc1cc(C)c(-n2cc3sc(NC4CC5(CC(O)C5)C4)nc3n2)c(O)c1` (stereo not shown) [Example 30, 6-{[2-(2-hydroxy-4,6-dimethylphenyl)-2H-pyrazolo[3,4-d][1,3]thiazol-5-yl]amino}spiro[3.3]heptan-2-ol] yielded an IC50 (NLRP3 inflammasome) of 830 nM and an IC50 (NF-κB pathway) of over 10000 nM.
`Cc1cc(C)c(-n2cc3sc(N[C@H]4C[C@@](C)(O)C4)nc3n2)c(O)c1` [Example 31, 2-{5-[(cis-3-hydroxy-3-methylcyclobutyl)amino]-2H-pyrazolo[3,4-d][1,3]thiazol-2-yl}-3,5-dimethylphenyl] showed an IC50 (NLRP3 inflammasome) of 650 nM and an IC50 (NF-κB pathway) of over 30000 nM.
`Cc1cc(C)c(-n2cc3sc(N[C@H]4C[C@](C)(O)C4)nc3n2)c(O)c1` [Example 32, 2-{5-[(trans-3-hydroxy-3-methylcyclobutyl)amino]-2H-pyrazolo[3,4-d][1,3]thiazol-2-yl}-3,5-dimethylphenol] gave an IC50 (NLRP3 inflammasome) of 680 nM and an IC50 (NF-κB pathway) of over 10000 nM.
In the case of `Cc1cc(C)c(-n2cc3sc(N[C@@H]4C[C@H](C(F)F)CN(C)C4)nc3n2)c(O)c1` [Example 33, 2-(5-{[(3R,5S)-5-(difluoromethyl)-1-methylpiperidin-3-yl]amino}-2H-pyrazolo[3,4-d][1,3]thiazol-2-yl)-3,5-dimethylphenol], the IC50 (NLRP3 inflammasome) is reported as 1500 nM and the IC50 (NF-κB pathway) is reported as over 10000 nM.
With `Cc1cc(C)c(-n2cc3sc(NC[C@@H](C)O)nc3n2)c(O)c1` [Example 34, 2-(5-{[(2R)-2-hydroxypropyl]amino}-2H-pyrazolo [3,4-d][1,3]thiazol-2-yl)-3,5-dimethylphenol] the IC50 (NLRP3 inflammasome) was 150 nM and the IC50 (NF-κB pathway) was over 10000 nM.
With `Cc1cc(C)c(-n2cc3sc(N[C@@H]4CCCN(CC(F)F)C4)nc3n2)c(O)c1` [Example 35, 2-(5-{[(3R)-1-(2,2-difluoroethyl)piperidin-3-yl]amino}-2H-pyrazolo[3,4-d][1,3]thiazol-2-yl)-3,5-dimethylphenol] the IC50 (NLRP3 inflammasome) was 68 nM and the IC50 (NF-κB pathway) was over 10000 nM.
Work on `COCCN1CCC[C@@H](Nc2nc3nn(-c4c(C)cc(C)cc4O)cc3s2)C1` [Example 36, 2-(5-{[(3R)-1-(2-methoxyethyl)piperidin-3-yl]amino}-2H-pyrazolo[3,4-d][1,3]thiazol-2-yl)-3,5-dimethylphenol] yielded an IC50 (NLRP3 inflammasome) of 34 nM and an IC50 (NF-κB pathway) of over 30000 nM.
